One experiment concerns the target T1, PDE4B2 (Homo sapiens, UniProt Q07343).
T1 construct: the full length human PDE4B2 short isoform; made in house; cytosol fraction of cell lysate, prepared as described for PDE4D5
Description: PDE assay, PDE4B2 short form (Experiment 1). The format is biochemical. The following applies: 100 μM test compound; mean % increase in counts over basal activity. On the procedure:
(§1) One suitable method of detecting whether or not a compound is capable of serving as an activator of a PDE4 long form is using a two-step radio-assay procedure described in Experiment 1. In summary, the method involves incubating a PDE4 long form with a test small molecule activator, together with [^3H]-labelled cAMP to assess alterations in the breakdown of cAMP to the 5′-adenosine monophosphate (5′-AMP) product. A sample of the reaction mixture from such an incubation is subsequently treated with snake venom 5′-nucleotidase to allow conversion of the nucleotide [^3H]-labelled 5′-AMP to the uncharged nucleoside [^3H]-labelled adenosine, which can be separated and quantified to assess PDE4 activity and the effect of the test compound (Thompson, W. J. and Appleman, M. M. Biochemistry 10: 311-316, 1971, with some modifications as described in: Marchmont, R. J. and Houslay, M. D. Biochem J. 187: 381-92, 1980).
(§2) Experiment 1: Measurement of Modulation of Enzyme Activity by PDE4 Long Form Activators of the Present Invention Using Full-Length Human PDE4 Isoforms; Long Forms PDE4D5, PDE4C3, PDE4B1 and Short Form PDE4B2 • (Marchmont, R. J. and Houslay, M. D. Biochem. J. 187: 381-92, 1980)
(§3) Where stable cell lines were generated the clonal isolates were expanded to obtain cell lines that stably expressed the full-length human PDE4 long isoforms and the full length human PDE4B2 short isoform. These were called the HEK-PDE4D5, HEK-PDE4B1 and HEK-PDE4B2 cell lines, respectively.
(§4) PDE assays were performed in thin walled V-bottomed 96-well plates. The assays were performed at a final concentration of 10 mM Tris/5 mM MgCl2 plus PDE4D5 cell lysate cytosol fraction, containing over-expressed PDE4D5, with and without test compound. The lysate/compound mix were incubated together for 15 min at room temperature on an orbital shaker prior to addition of [^3H] cAMP (final concentration 1 μM [^3H] cAMP; Perkin Elmer) to a final volume of 50 μL per reaction. The reactions were then incubated for 10 minutes at 30° C., terminated by heating for 2 min at 95° C. and allowed to cool. Snake venom (12.5 μL of 1 mg/mL; Crotalus atrox, Sigma) was then added and the plates were agitated and incubated for a further 15 minutes at 30° C. Dowex ion exchange resin (Sigma, chloride form, 200-400 mesh; 200 μL; prepared as a 1:1 Dowex:water stock, thoroughly re-suspended and diluted 2:1 with ethanol) was then added to each well and the plates incubated for 15 min at room temperature on an orbital shaker ensuring sufficient agitation for resin suspension (550 RPM). The reaction mixture was then transferred to a 96 well filter plate (Millipore; 0.45 μm pore size) and filtered into a receiving 96-well plate to remove the dowex suspension. 30 μL of the filtered solution was then transferred to the wells of an Opti-plate (Perkin Elmer) 96 well assay plate and 120 μL of Microscint 40 scintillation fluid was added. The plate was then placed on an orbital shaker for 10 min at high speed (900 rpm) to mix the sample with scintillation fluid prior to quantitation using a plate based scintillation counter (Top-Count).
The % increase in counts in the presence of test compound at a particular concentration indicates the % increase in enzyme activity at that concentration.

Another experiment addresses T2, PDE4D5 (Homo sapiens, UniProt Q08499).
T2 construct: Using Full-Length Human PDE4 Isoforms; Long Forms PDE4D5, PDE4C3, PDE4B1 and Short Form PDE4B2; made in house; cytosol fraction of cell lysate
The experiment in a line: PDE assay, activation of PDE4D5 long form (Experiment 1). Type of experiment: biochemical. Particulars: for activation at 100 µM: 100 μM test compound, mean % increase in counts over basal activity. The method, then:
as §1, §2
For transient transfection of exogenous PDE4 long isoforms, HEK 293 cells were transfected with pcDNA3.1 or pDEST^TM PDE4 expression vectors using Lipofectamine LTX/Plus reagent (Invitrogen) as outlined by the manufacturer.
as §3
HEK-PDE4D5 cells were seeded out in 100 mm plates and incubated at 37° C. in an atmosphere of 5% CO2, 95% air. Cell lysates were prepared using KHEM buffer [50 mM KCl, 10 mM EGTA, 50 mM HEPES (pH 7.2), 1.92 mM MgCl2].
To prepare the cell lysates, the 100 mm plates containing the cells were placed on ice and washed with ice-cold PBS (phosphate buffered saline, pH 7.4). KHEM buffer (500 μL) was added to the cells. Cells were then scraped off the plate and triturated using a needle (BD Microlance™ 0.8, 40 mm). The lysed cells were then centrifuged at 2000 rpm for 10 minutes to remove cell debris and the supernatant (cell lysate containing recombinant PDE4D5) was transferred to a fresh tube and kept on ice.
The cell lysate containing recombinant PDE4D5 was transferred into a centrifuge tube and placed into an ultracentrifuge (BECKMAN COULTER) and spun at high speed (100,000 g) for 30 minutes at 4° C. The cytosol fraction was then collected and its protein amount determined using a BCA protein assay.
as §4, with “30 μL of the filtered solution was then transferred to the wells of an Opti-plate (Perkin Elmer) 96 well assay plate and 120 μL of Microscint 40 scintillation fluid was added. The plate was then placed on an orbital shaker for 10 min at high speed (900 rpm) to mix the sample with scintillation fluid prior to quantitation using a plate based scintillation counter (Top-Count).” left out

T2 sequence (Q08499 1-745 isoform Q08499-6): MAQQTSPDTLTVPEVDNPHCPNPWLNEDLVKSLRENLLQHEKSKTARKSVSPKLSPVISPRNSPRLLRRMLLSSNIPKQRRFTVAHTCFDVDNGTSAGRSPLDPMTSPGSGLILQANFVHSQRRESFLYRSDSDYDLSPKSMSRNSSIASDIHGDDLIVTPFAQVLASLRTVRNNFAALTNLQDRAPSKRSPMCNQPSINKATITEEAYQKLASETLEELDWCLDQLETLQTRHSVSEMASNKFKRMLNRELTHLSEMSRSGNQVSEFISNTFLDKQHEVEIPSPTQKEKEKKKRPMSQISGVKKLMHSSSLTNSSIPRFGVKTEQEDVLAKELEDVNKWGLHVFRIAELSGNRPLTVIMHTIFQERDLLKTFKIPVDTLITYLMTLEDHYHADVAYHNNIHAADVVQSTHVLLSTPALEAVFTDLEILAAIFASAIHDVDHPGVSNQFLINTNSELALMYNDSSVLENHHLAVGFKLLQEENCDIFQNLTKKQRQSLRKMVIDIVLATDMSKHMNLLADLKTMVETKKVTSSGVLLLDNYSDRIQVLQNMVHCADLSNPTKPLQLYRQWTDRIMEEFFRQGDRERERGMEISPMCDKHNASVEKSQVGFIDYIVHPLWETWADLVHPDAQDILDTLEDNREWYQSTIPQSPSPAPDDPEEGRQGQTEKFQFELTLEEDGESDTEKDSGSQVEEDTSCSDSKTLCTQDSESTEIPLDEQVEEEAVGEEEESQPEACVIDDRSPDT
T1 sequence (Q07343 1-564 isoform Q07343-2): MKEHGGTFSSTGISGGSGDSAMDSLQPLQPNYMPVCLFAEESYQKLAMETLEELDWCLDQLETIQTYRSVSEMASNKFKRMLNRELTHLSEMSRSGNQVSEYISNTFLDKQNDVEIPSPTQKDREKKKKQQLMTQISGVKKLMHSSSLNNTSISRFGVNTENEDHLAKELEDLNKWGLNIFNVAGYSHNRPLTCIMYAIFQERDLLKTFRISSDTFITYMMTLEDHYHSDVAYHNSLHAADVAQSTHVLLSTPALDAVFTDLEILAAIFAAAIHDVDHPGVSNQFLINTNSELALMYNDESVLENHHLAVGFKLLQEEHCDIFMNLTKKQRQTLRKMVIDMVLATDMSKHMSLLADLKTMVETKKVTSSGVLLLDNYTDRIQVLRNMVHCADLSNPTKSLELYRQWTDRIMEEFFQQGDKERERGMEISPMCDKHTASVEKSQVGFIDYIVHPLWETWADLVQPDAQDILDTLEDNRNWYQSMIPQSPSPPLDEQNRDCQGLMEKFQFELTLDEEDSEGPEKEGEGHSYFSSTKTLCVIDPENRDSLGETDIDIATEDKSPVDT

For the compound `Cc1cncc(-c2nc3cc(C(=O)N[C@H]4CCOc5ccccc54)ccc3[nH]2)c1` [Example 4, (S)—N-(chroman-4-yl)-2-(5-methylpyridin-3-yl)-1H-benzo[d]imidazole-5-carboxamide], the activation at 100 µM is -6% at PDE4B2 and 140% at PDE4D5. For the same compound, on PDE4D5 (concentration-response), the “activation of PDE4D5 (FIG. 1)” value was “concentration-dependent activation”.
For `Cc1cncc(-c2nc3ccc(C(=O)N[C@H]4CCOc5ccccc54)cc3n2C)c1` [Example 28, (S)—N-(chroman-4-yl)-1-methyl-2-(5-methylpyridin-3-yl)-1H-benzo[d]imidazole-6-carboxamide], the activation at 100 µM at PDE4B2 worked out at 5%; on PDE4D5 it was 45%.
`Cc1ccc(-c2nc3cc(C(=O)N[C@H]4CCOc5ccccc54)ccc3[nH]2)cn1` [Example 2, (S)—N-(chroman-4-yl)-2-(6-methylpyridin-3-yl)-1H-benzo[d]imidazole-5-carboxamide]: the results for the activation at 100 µM on PDE4B2 and on PDE4D5 were -39% and 115%, respectively.
The matching figures for `Cc1ccncc1-c1nc2cc(C(=O)N[C@H]3CCOc4ccccc43)ccn2n1` [Example 53, (S)—N-(chroman-4-yl)-2-(4-methylpyridin-3-yl)-[1,2,4]triazolo[1,5-a]pyridine-7-carboxamide]: -8% and 33%.

(Values after patent publication US20260007680A1, “Compounds and Their Use as PDE4 Activators” (Mironid Limited, priority 2022, published 2026).)
